Assay results as given in patent publication EP1479389B1, “Ready to use gemcitabine solutions” (STADA ARZNEIMITTEL AG, priority 2003, dated 2004).

Key:
Format in all cases: physicochemical
[1] = Visible precipitation of aqueous gemcitabine solutions on storage (solubility, initial pH ca. 4,0); conditions: water, pH 4, water, 2-8°C storage, no solubility enhancers, read-out: Gehalt klarer partikelfreier Gemcitabinlösungen
Experimental: Zur Bestimmung der Löslichkeit von Gemcitabin in wässrigen Lösungen (bei T = 25°C und T = 2-8°C, Anfangs-pH-Wert = 4,0) wurde Gemcitabinhydrochlorid in Wasser für Injektionszwecke bei 25°C gelöst (c(Gemcitabin) = 55,2 mg/ml entsprechend 62,8 mg Gemcitabinhydrochlorid pro ml Wasser sowie c(Gemcitabin) = 10,0mg/ml entsprechend 11,38 mg Gemcitabinhydrochlorid pro ml Wasser) und der pH-Wert mit q.s. 1 N Natronlauge / q.s. 1 N Salzsäure eingestellt.
Aus dem so gewonnenen Ansatz wurden mit Wasser für Injektionszwecke verdünnte Lösungen hergestellt und potentiometrisch deren pH-Wert bestimmt. Die hergestellten Lösungen wurden jeweils als 5ml-Aliquote in mit Durchstechstopfen dicht verschlossenen Vials abgefüllt. Diese Proben wurden nach Lagerung bei 2-8°C bzw. bei 25°C auf sichtbare Auskristallisation des Wirkstoffs geprüft ("+" Niederschlag; "-" klar und partikelfrei) und ihr pH-Wert bestimmt. Tabelle 1: Niederschlagbildung in 25°C und 2-8°C-gelagerter Gemcitabinlösungen (Anfangs-pH ca. 4,0)

[2] = pH-dependent visible crystallisation of concentrated gemcitabine solutions; conditions: c=52,7mg Gemcitabin/ml
Experimental: Zur Bestimmung der tatsächlichen, pH-abhängigen Löslichkeit von Gemcitabin in wässrigen Lösungen wurden entsprechend Beispiel 1 konzentrierte Gemcitabin-Lösungen (c=52,7 mg Gemcitabin/ml entsprechend 60mg Gemcitabinhydrochlorid pro ml Wasser; 5 ml/Vial) hergestellt, deren pH-Wert mit q.s. 1 N Natronlauge auf pH-Werte von 2,0 bis 5,0 eingestellt wurde. Die so erhaltenen Lösungen wurden bei einer Lagertemperatur von 2-8°C gelagert.
Tabelle 2: Stabilität von konzentrierten Gemcitabin-Lösungen vs. Auskristallisation des Wirkstoffs

[3] = Temperature-dependent storage stability of gemcitabine solutions pH 4,0, content by HPLC; conditions: 10 mg/ml
Experimental: Zur weiteren Bestimmung der Temperatur-Abhängigkeit der Stabilität von erfindungsgemäßen Gemcitabin-Lösungen mit einem pH-Wert von ca. 4,0, wurden wie zuvor beschrieben Lösungen, deren pH-Wert mit 1 N Natronlauge eingestellt wurde, mit einer Gemcitabin-Konzentration von 10 mg/ml (in Wasser für Injektionszwecke) hergestellt. Diese wurden über einen Zeitraum von 12 Monaten gelagert. In dieser Zeit wurde die Wirkstoffkonzentration in regelmäßigen Abständen mittels HPLC bestimmt. Tabelle 3: Temperatur-abhängige Stabilität von Gemcitabin-Lösungen (c(Gemcitabin) = 10 mg/ml entsprechend 11,39 mg Gemcitabinhydrochlorid pro ml Wasser, pH 4,0)

[4] = Regressive extrapolation of the Table 6 storage stability data to 1-4 years; conditions: 10 mg/ml in aqueous solution, pH ca. 8; Lagertemperatur 25°C
Experimental: Eine regressive Extrapolation der in Tabelle 6 angegebenen Daten ergab folgende in Tabelle 7 aufgeführte Lagerstabilitäten. Tabelle 7 : Stabilität von Gemcitabin-Lösungen mit pH = 8,0 bei 25°C, 40°C und 60°C bei einer Lagerzeit von 1-4 Jahren

[5] = pH-dependent visible crystallisation of concentrated gemcitabine solutions; conditions: pH 5,0; 25°C; c=52,7 mg Gemcitabin/ml

Nc1ccn([C@@H]2O[C@H](CO)[C@@H](O)C2(F)F)c(=O)n1 [Gemcitabin, 2'-Deoxy-2',2'-difluorcytidin]
solubility [1]: ~10000 µg/mL | Sichtbare Auskristallisation ([2]; pH 2,0, nach 1 Tag (2-8°C)): + | Sichtbare Auskristallisation ([2]; pH 2,0, nach 2 Tagen (2-8°C)): + | Sichtbare Auskristallisation ([2]; pH 2,0, nach 3 Tagen (2-8°C)): + | Sichtbare Auskristallisation ([2]; pH 2,0, nach 7 Tagen (2-8°C)): + | Sichtbare Auskristallisation ([2]; pH 2,0, nach 14 Tagen (2-8°C)): + | Sichtbare Auskristallisation ([2]; pH 2,5, nach 1 Tag (2-8°C)): - | Sichtbare Auskristallisation ([2]; pH 2,5, nach 2 Tagen (2-8°C)): + | Sichtbare Auskristallisation ([2]; pH 2,5, nach 3 Tagen (2-8°C)): + | Sichtbare Auskristallisation ([2]; pH 2,5, nach 7 Tagen (2-8°C)): + | Sichtbare Auskristallisation ([2]; pH 2,5, nach 14 Tagen (2-8°C)): + | Sichtbare Auskristallisation ([2]; pH 3,0, nach 1 Tag (2-8°C)): - | Sichtbare Auskristallisation ([2]; pH 3,0, nach 2 Tagen (2-8°C)): + | Sichtbare Auskristallisation ([2]; pH 3,0, nach 3 Tagen (2-8°C)): + | Sichtbare Auskristallisation ([2]; pH 3,0, nach 7 Tagen (2-8°C)): + | Sichtbare Auskristallisation ([2]; pH 3,0, nach 14 Tagen (2-8°C)): + | Sichtbare Auskristallisation ([2]; pH 3,5, nach 1 Tag (2-8°C)): - | Sichtbare Auskristallisation ([2]; pH 3,5, nach 2 Tagen (2-8°C)): - | Sichtbare Auskristallisation ([2]; pH 3,5, nach 3 Tagen (2-8°C)): - | Sichtbare Auskristallisation ([2]; pH 3,5, nach 7 Tagen (2-8°C)): - | Sichtbare Auskristallisation ([2]; pH 3,5, nach 14 Tagen (2-8°C)): - | Gehalt ([3]; 5°C, 0 mon): 100,0 rel.% | Gehalt ([3]; 5°C, 3 mon, 129600 min): 99,7 rel.% | Gehalt ([3]; 5°C, 6 mon, 259200 min): 99,4 rel.% | Gehalt ([3]; 5°C, 9 mon, 388800 min): 99,2 rel.% | Gehalt ([3]; 5°C, 12 mon, 518400 min): 99,0 rel.% | Gehalt ([3]; 15°C, 0 mon): 100,0 rel.% | Gehalt ([3]; 15°C, 3 mon, 129600 min): 99,6 rel.% | Gehalt ([3]; 15°C, 6 mon, 259200 min): 99,2 rel.% | Gehalt ([3]; 15°C, 9 mon, 388800 min): 98,8 rel.% | Gehalt ([3]; 15°C, 12 mon, 518400 min): 98,3 rel.% | Gehalt ([3]; 25°C, 0 mon): 100,0 rel.% | Gehalt ([3]; 25°C, 3 mon, 129600 min): 97,1 rel.% | Gehalt ([3]; 25°C, 6 mon, 259200 min): 94,1 rel.% | Dauer, über die die Lösungen stabil sind [4]: ≥ 3 Jahren | Auskristallisation [5]: spontane (pH 5,0; 25°C) Auskristallisation
